Results reported in ChEMBL document CHEMBL4480449, “Conolodinines A-D, Aspidosperma- Aspidosperma Bisindole Alkaloids with Antiproliferative Activity from Tabernaemontana corymbosa” (J Nat Prod, 2019).

How the values were obtained:
[1] = Cytotoxicity against human KB/S cells after 72 hrs by MTT assay; type: functional, cell-based
HT-29 = assay: Cytotoxicity against human HT-29 cells after 72 hrs by MTT assay; type: functional, cell-based
MRC5 = assay: Cytotoxicity against human MRC5 cells after 72 hrs by MTT assay; type: cell-based
PC-3 = assay: Cytotoxicity against human PC3 cells after 72 hrs by MTT assay; type: functional, cell-based
MDA-MB-231 = assay: Cytotoxicity against human MDA-MB-231 cells after 72 hrs by MTT assay; type: functional, cell-based
MCF7 = assay: Cytotoxicity against human MCF7 cells after 72 hrs by MTT assay; type: functional, cell-based
KB/VJ300 [2] = assay: Cytotoxicity against human KB/VJ300 cells after 72 hrs by MTT assay; type: functional, cell-based
KB/VJ300 [3] = assay: Cytotoxicity against human KB/VJ300 cells after 72 hrs in presence of vincristine by MTT assay; type: functional, cell-based; also: test concentration or dose not given here
LNCaP = assay: Cytotoxicity against human LNCAP cells after 72 hrs by MTT assay; type: functional, cell-based
HCT-116 = assay: Cytotoxicity against human HCT116 cells after 72 hrs by MTT assay; type: functional, cell-based; conditions: HCT-116, 72 h
A549 = assay: Cytotoxicity against human A549 cells after 72 hrs by MTT assay; type: functional, cell-based; conditions: A549, 72 h

| Structure (SMILES) | IC50 [1] | IC50 (HT-29; ht-29) | IC50 (MRC5; mrc5) | IC50 (PC-3; pc-3) | IC50 (MDA-MB-231; mda-mb-231) | IC50 (MCF7; mcf7) | IC50 (KB/VJ300 [2]; kb/vj300) | IC50 (KB/VJ300 [3]; kb/vj300) | IC50 (LNCaP; lncap) | IC50 (HT-29; Homo sapiens, HT-29, 72 h) | IC50 (HCT-116) | IC50 (PC-3; Homo sapiens, PC-3, 72 h) | IC50 (MDA-MB-231; Homo sapiens, MDA-MB-231, 72 h) | IC50 (MCF7; Homo sapiens, MCF7, 72 h) | IC50 (KB/VJ300 [2]; Homo sapiens, KB/VJ300, 72 h) | IC50 (A549) | IC50 (KB/VJ300 [3]; Homo sapiens, KB/VJ300, 72 h) | IC50 (LNCaP; Homo sapiens, LNCaP, 72 h) | IC50 ([1]; Homo sapiens, 72 h) | IC50 (MRC5; Homo sapiens, MRC5, 72 h) |
| --- | --- | --- | --- | --- | --- | --- | --- | --- | --- | --- | --- | --- | --- | --- | --- | --- | --- | --- | --- | --- |
| CC[C@@]12CC(C(=O)OC)=C3N=C4C(=CC(=O)C(O)=C4OC)[C@@]34CCN([C@@H]3c5cc6c(cc5O[C@@H]3[C@H]1O)NC1=C(C(=O)OC)C[C@]3(CC)[C@@H]5O[C@@H]5CN5CC[C@@]16[C@@H]53)[C@H]42 (stereo in doubt; 8) | 0.01 µM | 1 µM | 4 µM | 0.5 µM | 0.8 µM | 0.7 µM | 2.9 µM | 4.2 µM | 1 µM |  |  |  |  |  |  |  |  |  |  |  |
| CC[C@@]12CC(C(=O)OC)=C3N=C4C(=CC(=O)C(O)=C4OC)[C@@]34CCN([C@@H]3c5cc6c(cc5O[C@@H]3[C@H]1O)NC1=C(C(=O)OC)C[C@]3(CC)[C@@H]5O[C@@H]5CN5CC[C@@]16[C@@H]53)[C@H]42 (stereo in doubt; 7) | 0.03 µM |  | 1.5 µM |  |  |  |  |  |  | 0.8 µM | 0.5 µM | 0.6 µM | 1.3 µM | 0.8 µM | 4.2 µM | > 10 µM | 3 µM | 1.6 µM |  |  |
| CC[C@]1(O)C[C@H]2CN(CCc3c([nH]c4ccccc34)[C@@](C(=O)OC)(c3cc4c(cc3OC)N(C=O)[C@H]3[C@@](O)(C(=O)OC)[C@H](OC(C)=O)[C@]5(CC)C=CCN6CC[C@]43[C@@H]65)C2)C1 [VINCRISTINE] |  |  |  |  |  |  |  |  |  |  |  |  |  |  | 2.6 µM |  |  |  | 0.0004 µM |  |
| CC[C@@]12CC(C(=O)OC)=C3Nc4c(cc(O)c(OC)c4OC)[C@@]34CCN([C@@H]3c5cc6c(cc5O[C@@H]3[C@H]1O)NC1=C(C(=O)OC)C[C@]35CCO[C@H]3CCN3CC[C@@]16[C@@H]35)[C@@H]24 |  |  |  |  |  |  |  |  |  |  |  |  |  |  |  | > 10 µM | 1.4 µM |  | 0.5 µM | 6.2 µM |
| CC[C@@]12CC(C(=O)OC)=C3N=C4C(=CC(=O)C(OC)=C4OC)[C@@]34CCN([C@H](c3ccc5c(c3)[C@@]36CCN7C[C@H]8O[C@H]8[C@@](CC)(CC[C@@H]3N5C)[C@H]76)[C@H]3O[C@H]31)[C@H]42 |  |  |  |  |  |  |  |  |  | 3.4 µM | 2.4 µM | 4.3 µM | 6 µM | 8.4 µM | 2.7 µM | > 10 µM | 4.4 µM | 3.3 µM | 1.1 µM | > 10 µM |
| CC[C@@]12CC(C(=O)OC)=C3Nc4cc5c(cc4[C@@]34CCN(C[C@H]3O[C@H]31)[C@@H]24)[C@@H]1[C@H](O5)[C@@H](O)[C@@]2(CC)CC(C(=O)OC)=C3Nc4c(cc(O)c(OC)c4OC)[C@@]34CCN1[C@@H]24 [CONOPHYLLINE] |  |  |  |  |  |  |  |  |  | 3 µM | 0.8 µM | 0.3 µM | 1.6 µM | 2.1 µM | > 10 µM | 3.2 µM | 4.9 µM | > 10 µM | 0.03 µM |  |
| CC[C@@]12CC[C@@H]3N(C)c4ccc([C@@H]5[C@H]6O[C@H]6[C@@]6(CC)CC(C(=O)OC)=C7Nc8c(cc(O)c(OC)c8OC)[C@@]78CCN5[C@@H]68)cc4[C@@]34CCN(C[C@H]3O[C@H]31)[C@@H]24 [CONOFOLINE] |  |  |  |  |  |  |  |  |  | 8.5 µM | 6.6 µM | 2.3 µM | 9.9 µM | > 10 µM | > 10 µM | 8.2 µM |  | > 10 µM | > 10 µM |  |
| CC[C@@]12CC(C(=O)OC)=C3N=C4C(=CC(=O)C(OC)=C4OC)[C@@]34CCN([C@@H]3c5cc6c(cc5O[C@@H]3[C@H]1O)NC1=C(C(=O)OC)C[C@]3(CC)[C@H](O)[C@@H](O)CN5CC[C@@]16[C@@H]53)[C@H]42 |  |  |  |  |  |  |  |  |  | 2.3 µM | 3.1 µM | > 10 µM | 5.4 µM | 3.5 µM | > 10 µM | > 10 µM | > 10 µM | 2.6 µM | 0.2 µM | > 10 µM |
| CC[C@]12C=CCN3CC[C@]4(C(=C(C(=O)OC)C1)Nc1cc5c(cc14)[C@@H]1[C@H](O5)[C@@H](O)[C@@]4(CC)CC(C(=O)OC)=C5Nc6c(cc(O)c(OC)c6OC)[C@@]56CCN1[C@@H]46)[C@@H]32 |  |  |  |  |  |  |  |  |  |  |  |  |  |  | > 10 µM |  |  |  | 1.5 µM |  |
| CC[C@@]12C=C(C(=O)OC)C3=Nc4c(cc(O)c(OC)c4OC)[C@@]34CCN([C@@H]3c5cc6c(cc5O[C@@H]3[C@H]1O)NC1=C(C(=O)OC)C[C@]3(CC)[C@@H]5O[C@@H]5CN5CC[C@@]16[C@@H]53)[C@@H]24 |  |  |  |  |  |  |  |  |  | 2.2 µM | 4.3 µM | 4.7 µM | 3.6 µM | 4.8 µM | > 10 µM | > 10 µM | 4.1 µM | > 10 µM | 1.1 µM |  |
| CC[C@@]12CC(C(=O)OC)=C3Nc4cc5c(cc4[C@@]34CCN(C[C@H]3O[C@H]31)[C@@H]24)[C@@H]1[C@H](O5)[C@@H](O)[C@@]2(CC)CC(C(=O)OC)=C3Nc4c(ccc(OC)c4O)[C@@]34CCN1[C@@H]24 |  |  |  |  |  |  |  |  |  | 0.3 µM | 1.1 µM | 7.9 µM | 1.4 µM | 0.6 µM | > 10 µM | > 10 µM | 1.3 µM | 9.6 µM | 0.1 µM |  |
| CC[C@@]12CC(C(=O)OC)=C3Nc4cc5c(cc4[C@@]34CCN(C[C@H](O)[C@H]1O)[C@@H]24)[C@@H]1[C@H](O5)[C@@H](O)[C@@]2(CC)CC(C(=O)OC)=C3Nc4c(cc(O)c(OC)c4OC)[C@@]34CCN1[C@@H]24 |  |  |  |  |  |  |  |  |  | 1.7 µM | 2.1 µM | 2.5 µM | > 10 µM | 1.2 µM | > 10 µM | > 10 µM | > 10 µM | 0.3 µM | 0.7 µM |  |
| CC[C@@]12CC(C(=O)OC)=C3N=C4C(=CC(=O)C(OC)=C4OC)[C@@]34CCN([C@@H]3c5cc6c(cc5O[C@@H]3[C@H]1O)NC1=C(C(=O)OC)C[C@]3(CC)[C@@H]5O[C@@H]5CN5CC[C@@]16[C@@H]53)[C@H]42 |  |  |  |  |  |  |  |  |  | 0.2 µM | 0.2 µM | 0.7 µM | 0.4 µM | 0.3 µM | 8.6 µM | > 10 µM | 1.5 µM | > 10 µM | 0.1 µM |  |
| COc1ccc(CCN(C)CCCC(C#N)(c2ccc(OC)c(OC)c2)C(C)C)cc1OC (stereo unspecified) [VERAPAMIL] |  |  |  |  |  |  |  |  |  |  |  |  |  |  |  |  | 0.8 µM |  |  |  |
| CC[C@]12C=CCN3CC[C@]4(C(=C(C(=O)OC)C1)Nc1cc5c(cc14)[C@@H]1[C@H](O5)[C@@H](O)[C@@]4(CC)CC(C(=O)OC)=C5N=C6C(=CC(=O)C(OC)=C6OC)[C@@]56CCN1[C@H]64)[C@@H]32 |  |  |  |  |  |  |  |  |  | 0.4 µM | 0.1 µM | 0.3 µM | 0.5 µM | 0.8 µM | 4.6 µM | > 10 µM | 4.3 µM | 2.8 µM | 0.03 µM | 5.6 µM |
